This note sets out measurements from patent publication US5371090A, “Naphthyridonecarboxylic acid derivatives” (Bayer Aktiengesellschaft, priority 1991, dated 1994).

Usually MIC stands for the lowest concentration that inhibits growth of the organism.

In brackets after ≈: the same amount, converted by molar mass. Where two headings read alike, the source gives them in different places.

What all share (assay): MIC on Iso-Sensitest agar, serial dilution
Type in all cases: cell-based

For one experiment, the system named is Pseudomonas aeruginosa. How it is done:
(§1) The minimum inhibitory concentrations (MICs) were determined on Iso-Sensitest agar (Oxoid) using serial dilution methods. For each test substance a series of agar plates was prepared which contained concentrations of the active substance which decreased as the dilution factor was doubled. The agar plates were inoculated by means of a multipoint inoculator (Denley). The inocula used were overnight cultures of the pathogens which had previously been diluted to such an extent that each inoculation point contained approx. 10^4 colony-forming units. The inoculated agar plates were incubated at 37° C., and the growth of the germs was read off after approx. 20 hours. The MIC value (μg/ml) indicates the lowest concentration of active compound at which no growth could be observed with the naked eye.

Another experiment deals with Staphylococcus aureus. The settings on record: 37° C., approx. 20 hours. How it is done:
as §1

Another experiment has as its system Klebsiella sp. The procedure:
as §1, with “hours.” for “hours. The MIC value (μg/ml) indicates the lowest concentration of active compound at which no growth could be observed with the naked eye.”

The subject of another experiment is Providencia spp. The procedure:
as §1, with “hours.” for “hours. The MIC value (μg/ml) indicates the lowest concentration of active compound at which no growth could be observed with the naked eye.”

The test system of a further experiment is Enterococcus faecalis. The procedure: as §1, with “hours.” for “hours. The MIC value (μg/ml) indicates the lowest concentration of active compound at which no growth could be observed with the naked eye.”
The subject of a further experiment is E. coli. The settings on record: Escherichia coli, 20 h, 37° C., approx. 20 hours. How it is done: as §1, with “hours.” for “hours. The MIC value (μg/ml) indicates the lowest concentration of active compound at which no growth could be observed with the naked eye.”
A further experiment deals with Morganella morg. How it is done:
as §1, with “hours.” for “hours. The MIC value (μg/ml) indicates the lowest concentration of active compound at which no growth could be observed with the naked eye.”

Where [1] appears, read: Pseudomonas aeruginosa strain Walter, 37° C., approx. 20 hours, read-out: MIC.
[2] abbreviates: Staphylococcus aureus strain 133.
The mark [3] stands for this setting: Staphylococcus aureus strain 1756, read-out: MIC.
Setting [4] is: Enterococcus faecalis, 20 h, Enterococcus faecalis strain 9790, 37° C., approx. 20 hours, read-out: MIC.
Where [5] appears, read: Staphylococcus aureus, 20 h, Staphylococcus aureus strain 133.
Where [6] appears, read: Enterococcus faecalis, 20 h, Enterococcus faecalis strain 27101, 37° C., approx. 20 hours.
The mark [7] stands for this setting: Enterococcus faecalis, 20 h, Enterococcus faecalis strain 9790, 37° C., approx. 20 hours.
Where [8] appears, read: Klebsiella sp. strain 8085, 37° C., approx. 20 hours, read-out: MIC.
Where [9] appears, read: Providencia spp. strain 12012, 37° C., approx. 20 hours, read-out: MIC.
[10] abbreviates: Morganella morg. strain 932, 37° C., approx. 20 hours, read-out: MIC.
Where [11] appears, read: Enterococcus faecalis, 20 h, Enterococcus faecalis strain 27101, 37° C., approx. 20 hours, read-out: MIC.

As to `Cl.O=C(O)c1cn(C2CC2)c2c(F)c(N3Cc4cccnc4C3)c(F)cc2c1=O` [Example 1B, 1-cyclopropyl-7-(5,7-dihydro-6H-pyrrolo[3,4-b]pyridin-6-yl)-6,8-difluoro-1,4-dihydro-4-oxo-3-quinolinecarboxylic acid hydrochloride], the MIC in the experiment with Pseudomonas aeruginosa (setting [1]) amounted to 4 mg/L; against Staphylococcus aureus (setting [2]), 0.02 mg/L; in the experiment with Staphylococcus aureus (setting [3]), 0.02 mg/L; against Klebsiella sp. (Klebsiella, 20 h), 0.25 mg/L; against Providencia spp. (Providencia, 20 h) it was 0.25 mg/L; in the experiment on Enterococcus faecalis (Enterococcus faecalis strain 27101, 37° C., approx. 20 hours, read-out: MIC), 0.01 mg/L. The minimal inhibitory concentration (MIC) in the experiment with Enterococcus faecalis (setting [4]) stood at 0.06 mg/L; with E. coli (E. coli strain 455/7), 8 mg/L.
As to `O=C(O)c1cn(C2CC2)c2c(F)c(N3Cc4ccncc4C3)c(F)cc2c1=O` [Example 2, 1-cyclopropyl-7-(2,3-dihydro-1H-pyrrolo[3,4-c]pyridin-2-yl)-6,8-difluoro-1,4-dihydro-4-oxo-3-quinolinecarboxylic acid], the MIC was determined as 1 mg/L (≈ 2.61 µM) with Pseudomonas aeruginosa (Pseudomonas aeruginosa, 20 h); 0.06 mg/L (≈ 0.157 µM) in the experiment with Staphylococcus aureus (setting [3]); 0.25 mg/L (≈ 0.652 µM) against Staphylococcus aureus (setting [5]); 0.25 mg/L (≈ 0.652 µM) with Providencia spp. (Providencia, 20 h); 0.25 mg/L (≈ 0.652 µM) in the experiment with Enterococcus faecalis (setting [6]); 8 mg/L (≈ 20.9 µM) in the experiment with E. coli (E. coli strain 455/7). This molecule also displayed an MIC against E. coli (E. coli strain Neumann) of 0.06 mg/L (≈ 0.157 µM).
With `O=C(O)c1cn(C2CC2)c2nc(N3Cc4cccnc4C3)c(F)cc2c1=O` [Example 3], the minimum inhibitory concentration (MIC) is 2 mg/L (≈ 5.46 µM) against Pseudomonas aeruginosa (Pseudomonas aeruginosa, 20 h); 0.25 mg/L (≈ 0.682 µM) against Staphylococcus aureus (setting [5]); 0.25 mg/L (≈ 0.682 µM) against Staphylococcus aureus (Staphylococcus aureus, 20 h, Staphylococcus aureus strain 1756); 0.5 mg/L (≈ 1.36 µM) in the experiment on Klebsiella sp. (Klebsiella, 20 h); 0.5 mg/L (≈ 1.36 µM) with Providencia spp. (Providencia, 20 h); 0.25 mg/L (≈ 0.682 µM) in the experiment with Morganella morg. (Morganella, 20 h). Also, the minimum inhibitory concentration (MIC) against Enterococcus faecalis (Enterococcus faecalis, 20 h) was 0.5 mg/L (≈ 1.36 µM); with Enterococcus faecalis (setting [7]) it was 0.5 mg/L (≈ 1.36 µM); against E. coli (E. coli strain 455/7), 128 mg/L (≈ 349 µM).
As for `O=C(O)c1cn(C2CC2)c2cc(N3Cc4ccncc4C3)c(F)cc2c1=O` [Example 4, 1-cyclopropyl-7-(2,3-dihydro-1H-pyrrolo[3,4-c]pyridin-2-yl)-6-fluoro-1,4-dihydro-4-oxo-3-quinolinecarboxylic acid], the minimal inhibitory concentration (MIC) came out at 4 mg/L (≈ 10.9 µM) in the experiment on Pseudomonas aeruginosa (setting [1]); 0.06 mg/L (≈ 0.164 µM) against Staphylococcus aureus (setting [2]); 0.06 mg/L (≈ 0.164 µM) with Staphylococcus aureus (setting [3]); 0.25 mg/L (≈ 0.684 µM) in the experiment on Klebsiella sp. (setting [8]); 0.5 mg/L (≈ 1.37 µM) with Providencia spp. (setting [9]); 0.5 mg/L (≈ 1.37 µM) in the experiment on Morganella morg. (setting [10]). In addition, the MIC in the experiment with Enterococcus faecalis (setting [4]) turned out to be 0.25 mg/L (≈ 0.684 µM); in the experiment with Enterococcus faecalis (setting [11]) it was 0.25 mg/L (≈ 0.684 µM); against E. coli (E. coli strain 455/7) it was 128 mg/L (≈ 350 µM); in the experiment with E. coli (E. coli strain Neumann), 0.06 mg/L (≈ 0.164 µM).
On to `O=C(O)c1cn(C2CC2)c2cc(N3Cc4cccnc4C3)c(F)cc2c1=O` [Example 5, 1-cyclopropyl-7-(5,7-dihydro-6H-pyrrolo[3,4-b]-pyridin-6-yl)-6-fluoro-1,4-dihydro-4-oxo-3-quinolinecarboxylic acid], for which the MIC in the experiment on Pseudomonas aeruginosa (setting [1]) stood at 128 mg/L (≈ 350 µM); against Staphylococcus aureus (setting [2]), 0.13 mg/L (≈ 0.356 µM); with Staphylococcus aureus (setting [3]) it was 0.13 mg/L (≈ 0.356 µM); in the experiment with Klebsiella sp. (Klebsiella, 20 h), 1 mg/L (≈ 2.74 µM); in the experiment with Providencia spp. (setting [9]) it was 0.5 mg/L (≈ 1.37 µM); in the experiment with Morganella morg. (setting [10]) it was 0.13 mg/L (≈ 0.356 µM). For the same molecule, the minimum inhibitory concentration (MIC) turned out to be 0.25 mg/L (≈ 0.684 µM) with Enterococcus faecalis (setting [4]), 0.25 mg/L (≈ 0.684 µM) with Enterococcus faecalis (setting [11]), 128 mg/L (≈ 350 µM) in the experiment on E. coli (E. coli strain 455/7) and 0.13 mg/L (≈ 0.356 µM) against E. coli (E. coli strain Neumann).
As for `O=C(O)c1cn(C2CC2)c2nc(N3Cc4ccncc4C3)c(F)cc2c1=O` [Example 6, 1-cyclopropyl-7-(2,3-dihydro-1H-pyrrolo[3,4-c]pyridin-2-yl]-6-fluoro-1,4-dihydro-4-oxo-1,8-naphthyridine-3-carboxylic acid], the MIC was 16 mg/L (≈ 43.7 µM) in the experiment on Pseudomonas aeruginosa (setting [1]); 0.25 mg/L (≈ 0.682 µM) against Staphylococcus aureus (setting [2]); 0.25 mg/L (≈ 0.682 µM) in the experiment on Staphylococcus aureus (setting [3]); 0.5 mg/L (≈ 1.36 µM) with Klebsiella sp. (Klebsiella, 20 h); 1 mg/L (≈ 2.73 µM) in the experiment on Providencia spp. (setting [9]); 0.25 mg/L (≈ 0.682 µM) with Morganella morg. (setting [10]). Besides, the minimal inhibitory concentration (MIC) against Enterococcus faecalis (Enterococcus faecalis, 20 h) is 0.5 mg/L (≈ 1.36 µM); against Enterococcus faecalis (setting [7]), 0.5 mg/L (≈ 1.36 µM); against E. coli (E. coli strain 455/7) it was 128 mg/L (≈ 349 µM); in the experiment on E. coli (E. coli strain Neumann), 0.13 mg/L (≈ 0.355 µM).
As to `CN1CCC2=C(C1)CN(c1c(F)cc3c(=O)c(C(=O)O)cn(C4CC4)c3c1F)C2.Cl` [Example 7B, 1-cyclopropyl-6,8-difluoro-1,4-dihydro-7-(5-methyl-2,3,4,5,6,7-hexahydro-1H-pyrrolo[3,4-c]-pyridin-2-yl)-4-oxo-3-quinolinecarboxylic acid hydrochloride], the minimum inhibitory concentration (MIC) against Pseudomonas aeruginosa (Pseudomonas aeruginosa, 20 h) was determined as 1 mg/L; in the experiment with Staphylococcus aureus (setting [2]), 0.06 mg/L; in the experiment on Staphylococcus aureus (setting [3]), 0.06 mg/L; in the experiment on Klebsiella sp. (setting [8]), 0.06 mg/L; in the experiment on Morganella morg. (setting [10]), 0.03 mg/L; against E. coli (E. coli strain 455/7) it was 2 mg/L. In the experiment on E. coli (E. coli strain Neumann), this molecule registered a minimal inhibitory concentration (MIC) of 0.02 mg/L.
Turning to `CN1CCC2=C(C1)CN(c1c(F)cc3c(=O)c(C(=O)O)cn(C4CC4)c3c1Cl)C2` [Example 8, 8-chloro-1-cyclopropyl-6-fluoro-1,4-dihydro-7-(5-methyl-2,3,4,5,6,7-hexahydro-1H-pyrrolo[3,4-c]pyridin-2-yl)-4-oxo-3-quinolinecarboxylic acid], the minimal inhibitory concentration (MIC) in the experiment with Pseudomonas aeruginosa (Pseudomonas aeruginosa, 20 h) was 0.5 mg/L (≈ 1.2 µM); against Staphylococcus aureus (setting [2]), 0.03 mg/L (≈ 0.0718 µM); in the experiment on Staphylococcus aureus (setting [3]) it was 0.03 mg/L (≈ 0.0718 µM); in the experiment on Klebsiella sp. (setting [8]), 0.06 mg/L (≈ 0.144 µM); in the experiment with Providencia spp. (setting [9]), 0.13 mg/L (≈ 0.311 µM); in the experiment with Morganella morg. (setting [10]) it was 0.06 mg/L (≈ 0.144 µM). Also, the MIC worked out at 0.06 mg/L (≈ 0.144 µM) with Enterococcus faecalis (setting [4]), 0.06 mg/L (≈ 0.144 µM) in the experiment on Enterococcus faecalis (setting [11]), 1 mg/L (≈ 2.39 µM) in the experiment on E. coli (E. coli strain 455/7) and 0.03 mg/L (≈ 0.0718 µM) against E. coli (E. coli strain Neumann).
As for `Cc1c(F)c(N2CC3=C(CN(C)CC3)C2)cc2c1c(=O)c(C(=O)O)cn2-c1ccc(F)cc1F` [Example 9, 1-(2,4-difluorophenyl)-6-fluoro-1,4-dihydro-5-methyl-7-(5-methyl-2,3,4,5,6,7-hexahydro-1H-pyrrolo[3,4-c]-pyridin-2-yl)-4-oxo-3-quinolinecarboxylic acid], the MIC in the experiment on Pseudomonas aeruginosa (setting [1]) amounted to 128 mg/L (≈ 273 µM); in the experiment with Staphylococcus aureus (setting [2]), 0.06 mg/L (≈ 0.128 µM); in the experiment on Staphylococcus aureus (setting [3]) it was 0.06 mg/L (≈ 0.128 µM); with Klebsiella sp. (Klebsiella, 20 h), 0.5 mg/L (≈ 1.07 µM); in the experiment on Providencia spp. (Providencia, 20 h) it was 0.5 mg/L (≈ 1.07 µM); against Morganella morg. (Morganella, 20 h), 0.5 mg/L (≈ 1.07 µM). Further, the MIC against Enterococcus faecalis (Enterococcus faecalis, 20 h) was determined as 0.5 mg/L (≈ 1.07 µM); in the experiment on Enterococcus faecalis (setting [7]), 0.5 mg/L (≈ 1.07 µM); against E. coli (E. coli strain 455/7), 128 mg/L (≈ 273 µM); against E. coli (E. coli strain Neumann) it was 0.25 mg/L (≈ 0.533 µM).
In the case of `Nc1cccc2c1CN(c1c(F)cc3c(=O)c(C(=O)O)cn(C4CC4)c3c1F)C2` [Ref., 7-(4-amino-1,3-dihydro-isoindol-2-yl)-1-cyclopropyl-6,8-difluoro-1,4-dihydro-4-oxo-3-quinolinecarboxylic acid, reference compound], the minimum inhibitory concentration (MIC) came to 128 mg/L (≈ 322 µM) with Pseudomonas aeruginosa (setting [1]); 0.03 mg/L (≈ 0.0755 µM) with Staphylococcus aureus (setting [2]); 0.03 mg/L (≈ 0.0755 µM) with Staphylococcus aureus (setting [3]); 4 mg/L (≈ 10.1 µM) in the experiment on Klebsiella sp. (setting [8]); 1 mg/L (≈ 2.52 µM) in the experiment with Providencia spp. (Providencia, 20 h); 1 mg/L (≈ 2.52 µM) in the experiment with Morganella morg. (Morganella, 20 h). For the same molecule, the MIC in the experiment on Enterococcus faecalis (setting [7]) came out at 1 mg/L (≈ 2.52 µM); against Enterococcus faecalis (setting [6]) it was 0.5 mg/L (≈ 1.26 µM); in the experiment on E. coli (E. coli strain 455/7) it was 128 mg/L (≈ 322 µM); in the experiment on E. coli (E. coli strain Neumann), 0.5 mg/L (≈ 1.26 µM).
